The text below walks through data of ChEMBL document CHEMBL4715902, “Thiophene-Pyrazolourea Derivatives as Potent, Orally Bioavailable, and Isoform-Selective JNK3 Inhibitors” (ACS Med Chem Lett, 2021).

Series [1] has as its target Mitogen-activated protein kinase 14 (Homo sapiens, UniProt Q16539). The series can be described thus: Inhibition of P38alpha (unknown origin).
The nature of series [2]: Metabolic stability in human liver microsomes assessed as half life. It counts as ADME, Microsome.
The test system of the next series is SH-SY5Y. Briefly: Cytotoxicity against human SH-SY5Y cells assessed as cell viability at 10 uM after 48 hrs by MTT assay relative to control. The format is cell-based. In general terms: Formazan colour is commonly taken as a measure of viable cells.
Series [3] in a line: Metabolic stability in mouse liver microsomes assessed as half life. The format is ADME, Microsome. For orientation: Microsomes from liver hold many membrane-bound enzymes, among them those of drug oxidation.
Series [4] has as its target Mitogen-activated protein kinase 10 (Rattus norvegicus) (UniProt P49187). The series can be described thus: Inhibition of JNK3 in rat primary neuron assessed as reduction in phosphorylation of APP at T688 residue at 10 nM incubated for 30 mins by Western blot analysis. Conditions: dose nM 10, time 30.0 min. On the technique in general: A western blot detects proteins with antibodies after separation by electrophoresis.

A short description of series [5]: Brain concentration in C57BL/6J mouse at 10 mg/kg, po measured after 1 hr by LC-MS/MS analysis. The format is ADME, organism-based. Conditions: read-out: Drug uptake.
A short description of series [6]: Plasma concentration in C57BL/6J mouse at 10 mg/kg, po measured after 1 hr by LC-MS/MS analysis. It counts as ADME, organism-based.

pIC50: −log10 of the molar value. Active and inactive are the calls of the source. No cut-off for these calls is given here.

Chain of Mitogen-activated protein kinase 14 (Q16539 whole entry): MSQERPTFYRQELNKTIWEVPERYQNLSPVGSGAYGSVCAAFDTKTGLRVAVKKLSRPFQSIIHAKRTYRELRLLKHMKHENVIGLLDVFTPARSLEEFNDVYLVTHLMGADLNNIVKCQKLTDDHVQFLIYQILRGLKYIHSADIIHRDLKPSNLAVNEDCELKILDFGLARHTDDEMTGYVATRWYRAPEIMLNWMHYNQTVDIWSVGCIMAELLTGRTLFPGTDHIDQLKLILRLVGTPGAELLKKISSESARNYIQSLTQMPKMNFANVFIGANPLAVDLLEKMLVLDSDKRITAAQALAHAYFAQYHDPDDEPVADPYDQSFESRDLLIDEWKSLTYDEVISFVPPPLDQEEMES
Chain of Mitogen-activated protein kinase 10 (Rattus norvegicus) (P49187 whole entry): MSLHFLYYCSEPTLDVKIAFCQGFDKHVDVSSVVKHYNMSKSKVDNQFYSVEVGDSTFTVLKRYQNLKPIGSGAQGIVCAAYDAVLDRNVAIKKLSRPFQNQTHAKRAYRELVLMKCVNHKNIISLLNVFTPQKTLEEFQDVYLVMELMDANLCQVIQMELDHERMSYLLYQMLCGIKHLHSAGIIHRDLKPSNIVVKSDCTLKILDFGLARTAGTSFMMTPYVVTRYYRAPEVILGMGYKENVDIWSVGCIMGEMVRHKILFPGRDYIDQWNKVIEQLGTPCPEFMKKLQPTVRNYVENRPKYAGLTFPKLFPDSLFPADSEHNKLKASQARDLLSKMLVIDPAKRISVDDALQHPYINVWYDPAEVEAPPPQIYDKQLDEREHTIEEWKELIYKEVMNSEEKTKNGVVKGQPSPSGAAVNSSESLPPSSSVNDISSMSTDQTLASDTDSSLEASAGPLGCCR

As for `[2H]C([2H])([2H])N1CC[C@@H](NC(=O)c2cc(-n3cc(NC(=O)Nc4ccccc4Cl)cn3)cs2)C1`, the pIC50 – broadly, −log10 of the IC50, conventionally taken in molar units – in series [1] was below 4.70.

In the case of `O=C(Nc1cnn(-c2csc(C(=O)NC3COC3)c2)c1)Nc1c(F)cccc1Cl`, the t1/2 in series [2] came out at 100 min; in series [3] it was 72 min. The Activity with SH-SY5Y amounted to 102%.

On to `O=C(Nc1cnn(-c2csc(C(=O)NC[C@H]3CCOC3)c2)c1)Nc1ccccc1Cl`, for which, in series [1], the negative logarithm of the IC50 (pIC50) was below 4.70.

In the case of `CN1CC[C@H](NC(=O)c2cc(-n3cc(NC(=O)Nc4ccccc4Cl)cn3)cs2)C1`, the t1/2 in series [2] worked out at 54 min. In series [1], this compound showed a pIC50 below 4.70. Also, in the series with SH-SY5Y, the Activity amounted to 94%.

Take `CN1CCC(NC(=O)c2cc(-n3cc(NC(=O)Nc4ccccc4Cl)cn3)cs2)CC1`: the t1/2 in series [2] was 92 min; in series [3], 15 min. Further, the Activity in the series with SH-SY5Y came out at 89%.

`O=C(Nc1cnn(-c2csc(C(=O)NCC3CCOCC3)c2)c1)Nc1ccccc1Cl`: the t1/2 in series [2] came out at 8 min; in series [3] it was 15 min. Moreover, in the series on SH-SY5Y, the Activity amounted to 95%.

For the compound `O=C(Nc1cnn(-c2csc(C(=O)NC3CCOCC3)c2)c1)Nc1ccccc1Cl`, the Activity in the series on SH-SY5Y is reported as 97%. Further, the t1/2 in series [3] is on record as 16 min.

Consider `O=C(Nc1cnn(-c2csc(C(=O)NC3COC3)c2)c1)Nc1ccccc1Cl`, for which the t1/2 in series [2] was found to be 66 min; in series [3] it was 24 min. The pIC50 in series [1] is below 4.70. Besides, the Activity with SH-SY5Y was 104%. For the same compound, in series [4], the inhibition result was “Active”. Further, the concentration at 1 h is 1080 nM in series [5] and 960 nM in series [6].

As for `O=C(Nc1cnn(-c2csc(C(=O)N[C@@H]3CCNC3)c2)c1)Nc1ccccc1Cl`, the pIC50 in series [1] is below 4.70.

Regarding `CC(C)N1CC[C@H](NC(=O)c2cc(-n3cc(NC(=O)Nc4ccccc4Cl)cn3)cs2)C1`, the pIC50 in series [1] was below 4.70.

In series [1], `O=C(Nc1cnn(-c2cc(C(=O)NC3CNC3)cs2)c1)Nc1ccccc1Cl` had a negative-log IC50 (pIC50) below 4.70.

The compound `CN1CCC[C@H]1CNC(=O)c1cc(-n2cc(NC(=O)Nc3ccccc3Cl)cn2)cs1` gave a pIC50 in series [1] below 4.70.

Take `CN1CC[C@@H](NC(=O)c2cc(-n3cc(NC(=O)Nc4ccccc4Cl)cn3)cs2)C1`: the pIC50 in series [1] was below 4.70.

Consider `O=C(Nc1cnn(-c2csc(C(=O)NC3CC3)c2)c1)Nc1ccccc1Cl`, for which the t1/2 came out at 49 min in series [2] and 35 min in series [3]. For the same compound, the Activity in the series on SH-SY5Y came out at 103%.

Turning to `O=C(Nc1cnn(-c2csc(C(=O)N[C@@H]3CCOC3)c2)c1)Nc1ccccc1Cl`, the t1/2 in series [2] turned out to be 33 min; in series [3], 13 min. The compound further had a negative-log IC50 (pIC50) in series [1] below 4.70. Moreover, in the series on SH-SY5Y, the Activity is listed as 112%.

`Cc1sc(C(=O)NC2COC2)cc1-n1cc(NC(=O)Nc2c(F)cccc2Cl)cn1`: the t1/2 was found to be 110 min in series [2] and 57 min in series [3]. For the same compound, in the series with SH-SY5Y, the Activity is 111%.

In series [1], `CN1CC[C@H](CNC(=O)c2cc(-n3cc(NC(=O)Nc4ccccc4Cl)cn3)cs2)C1` showed a pIC50 below 4.70.

Regarding `O=C(Nc1cnn(-c2csc(C(=O)NC3COC3)c2)c1)Nc1ccc(F)cc1Cl`, the t1/2 in series [2] is on record as above 120 min; in series [3], 68 min. Moreover, in the series with SH-SY5Y, the Activity stood at 104%. In series [4], the inhibition result was “Active”.

For the compound `Cc1sc(C(=O)N[C@@H]2CCOC2)cc1-n1cc(NC(=O)Nc2c(F)cccc2Cl)cn1`, the t1/2 in series [2] was determined as 40 min; in series [3] it was 38 min. In the series on SH-SY5Y, the Activity is listed as 114%. For the same compound, the inhibition result in series [4] was “Active”.
